Assay [1] addresses T1, human PMAT (Homo sapiens, UniProt Q7RTT9).
T1 construct: expressed in transfected cells; host or cells: HEK293
T1 sequence (Q7RTT9 1-530): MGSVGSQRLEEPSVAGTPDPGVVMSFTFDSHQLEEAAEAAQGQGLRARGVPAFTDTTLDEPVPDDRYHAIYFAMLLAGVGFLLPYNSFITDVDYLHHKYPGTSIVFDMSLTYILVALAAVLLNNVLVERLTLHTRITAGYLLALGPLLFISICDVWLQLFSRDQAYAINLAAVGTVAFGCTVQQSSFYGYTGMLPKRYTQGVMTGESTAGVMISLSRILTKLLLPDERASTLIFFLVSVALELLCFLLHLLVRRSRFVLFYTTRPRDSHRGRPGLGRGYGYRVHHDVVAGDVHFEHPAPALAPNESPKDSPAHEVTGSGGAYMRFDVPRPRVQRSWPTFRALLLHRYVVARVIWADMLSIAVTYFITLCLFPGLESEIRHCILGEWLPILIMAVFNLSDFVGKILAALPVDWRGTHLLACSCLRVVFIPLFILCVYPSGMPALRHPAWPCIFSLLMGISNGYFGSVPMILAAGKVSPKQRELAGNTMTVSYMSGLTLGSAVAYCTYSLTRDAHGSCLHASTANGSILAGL
Description: Oxygen consumption rate (OCR) assay, HEK293 cells transfected with PMAT. In kind it is cell-based. The source says: (§1) Diabetologia 2011, 54 (12): 3101-3110, each incorporated by reference with regard to such testing. The compounds of the present invention are similarly tested in an oxygen consumption rate (OCR) assay to evaluate the functional activity of test compounds in cells.
(§2) In brief, the assay uses HEK293 cells stably transfected with the human OCT1, OCT2, OCT3, PMAT, or MATE1 transporters to determine a compound's relative transporter selectivity and its effect on the rate of oxygen consumption relative to control (Neo) cells. The MitoXpress Xtra oxygen-sensitive fluorophore is used to monitor oxygen consumption rates in the presence and absence of compound treatments. The analogs were tested at eight (8) different concentrations in triplicate to determine a relative IC50 value.
(§3) A summary description of the protocol is as follows:
(§4) HEK293 cells transformed with human organic cation transporters were plated in collagen coated, 96-well black-walled microclear plates (Greiner-Bio 1, #655956) at 60,000 cells per well in growth medium (DMEM (LG), 10% FBS, 400 μg/ml G418). Cells were incubated overnight to allow attachment. The outer columns (1 and 12) are not seeded with cells, as controls. The next day, plating medium was removed and replaced with 150 μL of assay medium (DMEM/F12 (PRF), 5% FBS, antibiotics) containing compound dilutions. A 3-fold serial dilution was prepared in the assay medium and transferred to the empty wells. The outer columns and column 11 received 150 μL of assay medium only. 10 μL of MitoXpress Xtra reagent was added to each test well, and 100 μL of pre-warmed mineral oil was overlayed in each well to create a seal. Dual read time-resolved fluorescence (BMG FluoStar Galaxy reader) was measured over 2 hours with measurements taken every 2 minutes. Excitation is 340 nm, Emission is 650 nm. For lifetime analysis, two measurements per well were taken: 1) delay of 30 μs, with a window of 30 μs; and 2) delay of 70 μs with a window of 30 μs. Background TRF values from A1-D1 were subtracted from all readings. A ratiometric analysis was performed to determine changes in the Lifetime fluorescence signal:Lifetime (μs) [T]=(D2−D1)/ln(W1/W2), where D is delay; W is fluorescence window value at each time point. Lifetime slopes were calculated using each Lifetime measurement over time. IC50 values were determined by plotting lifetime slope values vs. compound concentration.

The test system of assay [2] is control (Neo) cells. Put plainly: Oxygen consumption rate (OCR) assay, control (Neo) HEK293 cells. The following applies: Homo sapiens, read-out: Oxygen Consumption Rate (OCR) IC50, Neo. It is filed as cell-based.
For assay [3], the target named is T2, human MATE1 (Homo sapiens, UniProt Q96FL8).
T2 sequence (Q96FL8 1-570): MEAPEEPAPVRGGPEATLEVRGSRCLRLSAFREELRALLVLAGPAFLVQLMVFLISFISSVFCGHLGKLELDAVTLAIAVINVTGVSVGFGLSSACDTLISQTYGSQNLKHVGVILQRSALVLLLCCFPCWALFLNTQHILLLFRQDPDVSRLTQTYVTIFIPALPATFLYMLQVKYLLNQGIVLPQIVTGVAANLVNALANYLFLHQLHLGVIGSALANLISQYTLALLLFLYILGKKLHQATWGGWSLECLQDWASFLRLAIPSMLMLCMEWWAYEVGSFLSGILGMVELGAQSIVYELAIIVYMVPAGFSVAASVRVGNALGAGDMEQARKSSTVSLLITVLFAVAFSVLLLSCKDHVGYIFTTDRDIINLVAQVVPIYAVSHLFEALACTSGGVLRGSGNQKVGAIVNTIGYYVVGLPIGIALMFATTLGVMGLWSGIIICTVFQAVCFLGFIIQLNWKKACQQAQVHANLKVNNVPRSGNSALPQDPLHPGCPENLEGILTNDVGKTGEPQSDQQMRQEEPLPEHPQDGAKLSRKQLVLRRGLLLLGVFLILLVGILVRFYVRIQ
Put plainly: Oxygen consumption rate (OCR) assay, HEK293 cells transfected with MATE1.

Assay [4] addresses T3, human OCT1 (Homo sapiens, UniProt O15245).
T3 sequence (O15245 1-554): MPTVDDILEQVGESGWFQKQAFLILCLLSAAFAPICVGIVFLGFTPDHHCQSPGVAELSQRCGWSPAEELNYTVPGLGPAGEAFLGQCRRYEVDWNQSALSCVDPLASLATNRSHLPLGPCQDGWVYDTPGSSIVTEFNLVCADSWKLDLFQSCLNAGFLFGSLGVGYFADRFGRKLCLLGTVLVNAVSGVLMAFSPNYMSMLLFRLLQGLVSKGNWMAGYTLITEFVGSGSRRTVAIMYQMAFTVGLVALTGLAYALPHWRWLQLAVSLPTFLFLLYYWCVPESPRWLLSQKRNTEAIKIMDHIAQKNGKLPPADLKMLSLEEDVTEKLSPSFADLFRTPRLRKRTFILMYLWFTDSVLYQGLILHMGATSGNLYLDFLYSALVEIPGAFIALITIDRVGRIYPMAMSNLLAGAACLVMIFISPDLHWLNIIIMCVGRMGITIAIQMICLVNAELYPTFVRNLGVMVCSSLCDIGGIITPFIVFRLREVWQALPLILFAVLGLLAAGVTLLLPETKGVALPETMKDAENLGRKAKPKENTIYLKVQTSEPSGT
Put plainly: Oxygen consumption rate (OCR) assay, HEK293 cells transfected with OCT1. The following applies: HEK293 cells stably transfected with human OCT1; MitoXpress Xtra, 2 hours.
Excerpt: as §1, §2, §3
as §4, with “10 μL of MitoXpress Xtra reagent was added to each test well, and 100 μL of pre-warmed mineral oil was overlayed in each well to create a seal.” left out, “Excitation is 340 nm, Emission is 650 nm. For lifetime analysis, two measurements per well were taken: 1) delay of 30 μs, with a window of 30 μs; and 2) delay of 70 μs with a window of 30 μs.” left out

For assay [5], the target named is T4, human OCT2 (Homo sapiens, UniProt O15244).
T4 sequence (O15244 1-555): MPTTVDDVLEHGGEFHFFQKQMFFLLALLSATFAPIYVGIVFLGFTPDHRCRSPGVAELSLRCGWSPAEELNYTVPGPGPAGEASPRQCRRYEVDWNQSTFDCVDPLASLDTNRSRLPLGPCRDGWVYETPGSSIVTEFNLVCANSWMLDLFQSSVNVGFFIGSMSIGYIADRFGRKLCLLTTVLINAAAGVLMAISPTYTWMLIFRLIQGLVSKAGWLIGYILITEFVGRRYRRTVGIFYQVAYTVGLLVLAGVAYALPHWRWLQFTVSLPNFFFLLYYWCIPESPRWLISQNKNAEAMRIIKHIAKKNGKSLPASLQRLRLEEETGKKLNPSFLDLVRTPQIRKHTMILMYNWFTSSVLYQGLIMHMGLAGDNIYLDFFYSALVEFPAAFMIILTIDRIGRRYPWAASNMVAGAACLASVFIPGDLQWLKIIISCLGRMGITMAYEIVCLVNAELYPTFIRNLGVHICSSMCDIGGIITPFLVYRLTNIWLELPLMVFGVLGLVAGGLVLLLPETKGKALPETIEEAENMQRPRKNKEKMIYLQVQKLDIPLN
Description: Oxygen consumption rate (OCR) assay, HEK293 cells transfected with OCT2. The following applies: HEK293 cells stably transfected with human OCT2; MitoXpress Xtra, 2 hours.
Excerpt: as §1, §2, §3
as §4, with “10 μL of MitoXpress Xtra reagent was added to each test well, and 100 μL of pre-warmed mineral oil was overlayed in each well to create a seal.” left out, “Excitation is 340 nm, Emission is 650 nm. For lifetime analysis, two measurements per well were taken: 1) delay of 30 μs, with a window of 30 μs; and 2) delay of 70 μs with a window of 30 μs.” left out

The conditions of assay [6]: T2D patients treated with metformin, retrospective studies; cited from earlier work.
The conditions of assay [7]: diabetic cancer patients taking metformin during neoadjuvant chemotherapy; versus 8% not receiving metformin, P=0.007; cited from earlier work.
The conditions of assay [8]: NASH, dose up to 1 g twice daily (BID); cited from earlier work.
For assay [9] the following is noted: diabetic patients receiving metformin; cited from earlier work.

The structures appear in SMILES notation. Where a name gives a salt, the structure may show the parent alone. Read-outs that look alike come from different tables or passages of the source. Where only a bound is given, the exact number is not on record here.

In the case of `Cc1[nH]c2ccccc2c1CCNC(=N)NC(=N)N` [Ex 1, 1-[2-(2-methyl-1H-indol-3-yl)ethyl]imidodicarbonimide diamide], the IC50 in assay [1] was 3 µM; in assay [2] (HEK293, 2 h), above 5000 µM. In addition, in [3] (HEK293, read-out: Oxygen Consumption Rate (OCR), MATE 1, % Inhibition at 1000 μM test concentration), the inhibition at 1000 µM stood at 30%. Moreover, in [4], the “Oxygen Consumption Rate (OCR) IC50, OCT 1” value amounted to 1267 µM.

As for `N=C(N)NC(=N)NCCc1c[nH]c2cccc(Cl)c12` [Ex 34, 1-[2-(4-chloro-1H-indol-3-yl)ethyl]imidodicarbonimide diamide, trifluoroacetic acid salt], the IC50 in [1] was 2 µM; in assay [2] (HEK293, 2 h), 184 µM; in [3] it was 19 µM. The “Oxygen Consumption Rate (OCR) IC50, OCT 1” value in assay [4] came to 3 µM.

As for `Cl.N=C(N)NC(=N)NCCc1c[nH]c2ccc(F)cc12` [Ex 2, 1-[2-(5-fluoro-1H-indol-3-yl)ethyl]imidodicarbonimide diamide hydrochloride], the IC50 in assay [1] was 5 µM; in assay [2] (HEK293, 2 h), above 1000 µM; in [3], above 1000 µM. Also, the “Oxygen Consumption Rate (OCR) IC50, OCT 1” value in [4] was above 1000 µM.

Turning to `N=C(N)NC(=N)NCCc1c[nH]c2cccc(F)c12` [Ex 26, 1-[2-(4-fluoro-1H-indol-3-yl)ethyl]imidodicarbonimide diamide, trifluoroacetic acid salt], the IC50 came to 2 µM in assay [1] and 90 µM in [2] (HEK293, 2 h). Besides, the “Oxygen Consumption Rate (OCR) IC50, OCT 2” value in assay [5] came out at 2 µM.

For `N=C(N)NC(=N)NCCc1c[nH]c2c(F)cccc12` [Ex 3, 1-[2-(7-fluoro-1H-indol-3-yl)ethyl]imidodicarbonimide diamide], the 50% inhibitory concentration (IC50) came to 4 µM in assay [1]; 677 µM in [2] (HEK293, 2 h); 20 µM in assay [3]. In [5], the “Oxygen Consumption Rate (OCR) IC50, OCT 2” value worked out at 7 µM.

Turning to `N=C(N)NC(=N)NCCc1c[nH]c2cc(F)ccc12` [Ex 11, 1-[2-(6-fluoro-1H-indol-3-yl)ethyl]imidodicarbonimide Diamide Trifluoroacetic Acid Salt], the IC50 in assay [1] came to 3 µM; in assay [2] (HEK293, 2 h), 214 µM; in [3], 57 µM. Further, the “Oxygen Consumption Rate (OCR) IC50, OCT 2” value in assay [5] stood at 12 µM.

For the compound `CN(C)C(=N)NC(=N)N` [Metformin], the “reduced cancer burden than patients on other treatments” value in assay [6] is around 40%. Further, the “pathological complete response rate” value in assay [7] is recorded as 24%. The “patients with improvement in liver pathology and ALT” value in assay [8] was 30%. For the same compound, the IC50 in assay [1] (HEK293 cells stably transfected with human PMAT, MitoXpress Xtra, 2 hours, read-out: Oxygen Consumption Rate (OCR) IC50, PMAT) was 288 µM; in assay [2] (control (Neo) HEK293 cells, MitoXpress Xtra, 2 hours), above 3000 µM. The “decrease in breast cancer compared with those on other therapies” value in [9] is given as 56%.

These data come from patent US12371404B2, “Fused bicyclic alkylene linked imidodicarbonimidic diamides, methods for synthesis, and uses in therapy” (NovaTarg, Inc., priority 2016, dated 2025).
